According to ChEMBL document CHEMBL6178009, “Targeted Degradation of BCL6 Using Novel Bifunctional Degraders: A New Therapeutic Strategy for BCL6-Positive Cancers” (ACS Med Chem Lett, 2025):
pEC50: −log10 of the molar value.

Assays:
[1] = molecular target: Protein cereblon/B-cell lymphoma 6 protein (Homo sapiens, UniProt P41182+Q96SW2); assay: PROTAC activity at CRBN/N-terminal HiBit-tagged BCL6 in human HT-1080 cells transfected with pLV-UBC-N-HiBiT- BCL6-PGK-puro assessed as degradation of BCL6 incubated for 5 hrs by luminescence based NANO-Glo HIBiT lytic detection assay; assay type: cell-based
[2] = molecular target: Protein cereblon/B-cell lymphoma 6 protein (Homo sapiens) (UniProt Q96SW2+P41182); assay: PROTAC activity at CRBN/N-terminal HiBit-tagged BCL6 in human HT-1080 cells transfected with pLV-UBC-N-HiBiT- BCL6-PGK-puro assessed as degradation of BCL6 by measuring ratio of trough concentration of protein in cell compared to the concentration of protein before the cell contact with compound (Ymin) incubated for 5 hrs by luminescence based NANO-Glo HIBiT lytic detection assay relative to control

Row | pEC50 [1] | Emin [2] [%] | Compound
1 | ≥ 7.60 | 30 | CNC(=O)COc1cc2cc(Nc3nc(N4CCN(CC5CCN(c6ccc7c(C8CCC(=O)NC8=O)nn(C)c7c6)CC5(F)F)C(C)C4)ncc3Cl)cnc2n(C(C)C)c1=O (configuration not stated)
2 | ≥ 7.60 | < 30 | CNC(=O)COc1cc2cc(Nc3nc(N4CCC5(CCN(CC6CCN(c7cc8c(cc7F)c(C7CCC(=O)NC7=O)nn8C)CC6)CC5)CC4)ncc3Cl)cnc2n(C)c1=O (configuration not stated)
3 | ≥ 7.60 | < 30 | CNC(=O)COc1cc2cc(Nc3nc(N4CCN(CC5CCN(c6cccc7c(C8CCC(=O)NC8=O)nn(C)c67)CC5)CC4)ncc3Cl)cc3c2n(c1=O)CCO3 (configuration not stated)
4 | ≥ 7.60 | < 30 | CNC(=O)COc1cc2cc(Nc3nc(N4CC[C@@H](CN5CCN(c6cccc7c(C8CCC(=O)NC8=O)nn(C)c67)CC5)[C@@H](C)C4)ncc3Cl)cc3c2n(c1=O)CCO3 (some centres not stated)

Continued, compound first:

Row | Compound | pEC50 [1] | Emin [2] [%]
5 | CNC(=O)COc1cc2cc(Nc3nc(N4CCC(CN5CCC(c6ccc7c(C8CCC(=O)NC8=O)nn(C)c7c6F)CC5)CC4)ncc3Cl)cc3c2n(c1=O)[C@@H](C)CO3 (some centres not stated) | ≥ 7.60 | < 30
6 | CNC(=O)COc1cc2cc(Nc3nc(N4CCC5(CC4)CCN([C@H](C)C4CCN(c6ccc7c(C8CCC(=O)NC8=O)nn(C)c7c6)CC4)CC5)ncc3Cl)cnc2n(C)c1=O (some centres not stated) | ≥ 7.60 | < 30
